From US8466162B2, “5-alkynyl-pyridines” (Boehringer Ingelheim International GmbH, priority 2011, dated 2013)

What was measured:
[1] = biological target: T1, PI3Kalpha (Homo sapiens, UniProt P42336); assay: Inhibition of PI3Kalpha-induced PIP-2 phosphorylation (filter-binding assay, 33P-ATP); format: biochemical; conditions: PI3 Kinase alpha (p85alpha/His-p110alpha), 1 μM ATP; read-out: IC50 PI3Kα
T1 construct: His (N); made in house; host or cells: SF9 insect cells (baculovirus co-infection)
Description: Biological Methods Inhibition of PI3Kalpha-Induced PIP-2 Phosphorylation
See also J. A. Engelman, Nature Reviews Cancer, 2009, 9, 550-562; A. Carnero, Expert Opin. Investig. Drugs, 2009, 18, 1265-1277 and P. Liu et al., Nature Reviews Drug Discovery, 2009, 8, 627-64.
Method Type: Filter-Binding-Assay
Aliquoted in desired amounts and stored at −80° C. […] Assay Procedure
The substrate-containing lipid vesicles are dissolved to a concentration of 0.637 mg lipid blend/ml assay buffer (with BSA, freshly added) in 50 ml Falcon ->keep on ice, followed by ultrasonication (pulse of 15 sec followed by a pause of 10 sec, 4×). Compounds are serially diluted in assay buffer+6% DMSO and 10 μl of each dilution is added per well of a 96-well plate (compounds are tested in duplicates) and mixed with 30 μl of the lipid vesicles containing PDGFR-Peptide (0.5 μM final) and PI3K alpha (25 ng/well final). The mixture is then incubated for 20 minutes at room temperature.
Subsequently, 20 μl of assay buffer containing 3 μM cold ATP and 0.5 μCi/20 μl 33P-ATP are added. The plates are then incubated at room temperature for 120 minutes (shaking with 300 rpm).
The reaction mix is transferred onto filter plates using “filtermate harvester” from Packard: filter plates are rinsed with PBS, then the reaction mix is filtered onto the filter plate, washed 5 times with PBS and are allowed to dry for 30-60 minutes at 50° C. The plate bottom is sealed with Perkin Elmer white adhesive foil and 25 μl/well Microscint0 are added, the top is covered with transparent adhesive foil and the plate is measured with Wallac Trilux 1450 Microbeta Counter.
As positive control serve wells containing vehicle controls (1% DMSO in assay buffer), showing non-inhibited kinase activity (high values). Wells containing assay buffer instead of enzyme can serve as control for background activity (low values).
Calculate IC50 values using the Smiley program (based on GrapPad Prism)

[2] = test system: H460 cells; assay: alamarBlue H460 cell assay (antiproliferative/cytotoxicity); format: cell-based; conditions: NCI-H460; H460 human lung carcinoma cells
Excerpt: (§1) The H460, MB453, U87, MCF7 and BT474 alamarBlue cell assays provide EC50 values indicative of the antiproliferative or cytotoxic effects of the compounds to respectively the H460 (human non small cell line cancer), MB-453 (breast cancer cell line), U87 (glioblastoma cell line), MCF7 (breast cancer cell line) and BT474 (breast cancer cell line). As known in the field, antiproliferative or cytotoxic effect against this cell lines would be expected to be indicative of activity in treating lung, breast and brain cancers. See R. Marone R et al. Biochim. Biophys. Acta. 2008 January; 1784(1):159-85. S. Yaguchi et al., J. Natl. Cancer Inst. 2006 Apr. 19; 98(8):545-56.
(§2) Method Type: Antiproliferative/Cytotoxicity
(§3) alamarBlue® is designed to provide a rapid and sensitive measure of cell proliferation and cytotoxicity in various human and animal cell lines. The assay is based on the reduction of alamarBlue in the reducing environment of living (metabolically active) cells. In the presence of added cytotoxic or antiproliferative compounds, the innate metabolic activity ceases.
(§4) AlamarBlue is soluble and stable in culture medium. Measurements are made fluorometrically by exciting at 530-560 nm and measuring emission at 590 nm. In reporting percent alamarBlue reduction by monitoring fluorescence, data are expressed as fluorescence emission intensity units as a function of time of incubation.
(§5) 3. Equipment • 96-well plates, flat bottom (Falcon, Cat. No.: 353072) • 96-well plates, U-shaped (Costar, Cat. No.: 3799) • CO2-Incubator • Microplate Reader, Spectramax Plus, Molecular Devices 4. Typical Procedure • Day 0: Seed 3000 BT-474 cells (IMDM/5% FCS, 1% NEAA, 1% Sodiumpyruvat) in 150 μl medium into a 96-well plate, flat bottom (include mediumblank). Incubate plates at 37° C. in a CO2 incubator overnight. • Day 1: Dilute compounds to a concentration 40 μM ->1:3 in medium, 10 dilution steps, in 96-well plates. • Add 50 μl per well of each dilution (total volume per well 200 μl; final conc. of cpds: 10 μM ->1:3). If required, test further dilutions. • All concentrations are tested in duplicates. • Controls: Cells w/o cpd. (+50 μl medium/DMSO). • Cells are incubated with compounds for 5-6 days. • Day 6 or 7: Add 25 μl of alamarBlue solution to each well and incubate for 8 hours at 37° C. Measure fluorescence by exciting at 530-560 nm and measuring emission at 590 nm 5. Evaluation • Subtract average value for medium blank from sample readings • Calculate EC50 using GraphPad Prism (Fifty)

[3] = test system: MB453 cells; assay: alamarBlue MB453 cell assay (antiproliferative/cytotoxicity); format: cell-based; conditions: Homo sapiens; MDA MB 453 breast cancer cell line
Excerpt: as §1, §2, §3, §4, §5

[4] = test system: U87 cells; assay: alamarBlue U87 cell assay (antiproliferative/cytotoxicity); format: cell-based; conditions: U-87MG human glioblastoma cells
Excerpt: as §1, §2, §3, §4, §5

[5] = test system: MCF7 cells; assay: alamarBlue MCF7 cell assay (antiproliferative/cytotoxicity); format: cell-based; conditions: MCF7 human breast cancer cell line
Excerpt: as §1, §2, §3, §4, §5

[6] = test system: BT474 cells; assay: alamarBlue BT474 cell assay (antiproliferative/cytotoxicity); format: cell-based; conditions: BT-474 human breast cancer cell line, 5-6 days incubation
Excerpt: as §1, §2, §3, §4, §5

T1 sequence (P27986 whole entry): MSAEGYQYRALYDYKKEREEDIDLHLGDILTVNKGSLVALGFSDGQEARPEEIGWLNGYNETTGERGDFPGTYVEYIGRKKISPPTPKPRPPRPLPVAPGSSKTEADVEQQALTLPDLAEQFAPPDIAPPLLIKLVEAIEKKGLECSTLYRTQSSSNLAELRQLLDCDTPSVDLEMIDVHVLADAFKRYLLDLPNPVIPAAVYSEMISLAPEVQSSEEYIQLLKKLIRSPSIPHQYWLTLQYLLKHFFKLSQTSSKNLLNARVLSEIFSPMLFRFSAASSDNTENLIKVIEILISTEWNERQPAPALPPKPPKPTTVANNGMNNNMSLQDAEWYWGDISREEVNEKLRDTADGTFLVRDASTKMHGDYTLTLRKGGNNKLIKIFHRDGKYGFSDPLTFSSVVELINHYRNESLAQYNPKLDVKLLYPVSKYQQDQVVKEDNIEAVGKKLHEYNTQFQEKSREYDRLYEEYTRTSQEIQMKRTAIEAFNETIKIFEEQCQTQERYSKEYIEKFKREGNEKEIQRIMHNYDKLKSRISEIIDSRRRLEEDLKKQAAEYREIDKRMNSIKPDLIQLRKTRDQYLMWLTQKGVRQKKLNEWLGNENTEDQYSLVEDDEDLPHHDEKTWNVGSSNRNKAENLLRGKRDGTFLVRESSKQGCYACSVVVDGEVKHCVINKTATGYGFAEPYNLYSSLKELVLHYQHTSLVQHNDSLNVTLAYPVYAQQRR
T1 sequence (P42336 whole entry): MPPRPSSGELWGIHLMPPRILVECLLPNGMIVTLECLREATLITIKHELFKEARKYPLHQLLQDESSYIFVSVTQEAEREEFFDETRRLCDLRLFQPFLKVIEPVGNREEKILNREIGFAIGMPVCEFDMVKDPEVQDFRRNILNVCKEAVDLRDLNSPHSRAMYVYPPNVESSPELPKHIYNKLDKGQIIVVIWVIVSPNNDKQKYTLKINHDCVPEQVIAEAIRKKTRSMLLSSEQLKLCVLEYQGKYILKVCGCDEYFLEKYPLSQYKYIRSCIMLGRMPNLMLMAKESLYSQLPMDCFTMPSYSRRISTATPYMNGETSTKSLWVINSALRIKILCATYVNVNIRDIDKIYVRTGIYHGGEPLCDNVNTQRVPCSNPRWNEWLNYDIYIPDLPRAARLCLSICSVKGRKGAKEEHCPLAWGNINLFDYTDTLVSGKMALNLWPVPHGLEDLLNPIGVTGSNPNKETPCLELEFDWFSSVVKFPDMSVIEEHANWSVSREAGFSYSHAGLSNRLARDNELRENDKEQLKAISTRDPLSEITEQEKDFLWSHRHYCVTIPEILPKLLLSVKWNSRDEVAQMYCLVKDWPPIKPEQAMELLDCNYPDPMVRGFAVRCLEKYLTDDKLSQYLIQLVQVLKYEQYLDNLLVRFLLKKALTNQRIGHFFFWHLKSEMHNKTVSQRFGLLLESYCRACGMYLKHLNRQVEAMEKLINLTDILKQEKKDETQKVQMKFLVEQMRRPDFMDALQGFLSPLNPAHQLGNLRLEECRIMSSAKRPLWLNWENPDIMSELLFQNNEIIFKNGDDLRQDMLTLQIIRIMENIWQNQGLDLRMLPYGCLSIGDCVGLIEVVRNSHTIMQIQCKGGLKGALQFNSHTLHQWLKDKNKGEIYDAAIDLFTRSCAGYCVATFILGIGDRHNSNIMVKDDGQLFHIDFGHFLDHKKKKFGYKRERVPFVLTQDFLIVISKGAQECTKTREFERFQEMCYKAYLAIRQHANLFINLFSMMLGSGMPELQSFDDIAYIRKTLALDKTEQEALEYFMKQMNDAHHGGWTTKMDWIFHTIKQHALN

IC50 [1]	Structure (SMILES)	EC50 [2]	EC50 [3]	EC50 [4]	EC50 [5]	EC50 [6]
1 nM	CCc1ncnc(-c2ccc(OC)c(OC)c2)c1C#Cc1cnc(C)c(NS(C)(=O)=O)c1 [Example 1, N-{5-[4-(3,4-Dimethoxy-phenyl)-6-ethyl-pyrimidin-5-ylethynyl]-2-methyl-pyridin-3-yl}-methanesulfonamide]	490 nM	79 nM	300 nM	39 nM	94 nM
7 nM	CCc1ncnc(-c2cccc(CN(C)C)c2)c1C#Cc1cnc(C)c(NS(C)(=O)=O)c1 [Example 2, N-{5-[4-(3-Dimethylaminomethyl-phenyl)-6-ethyl-pyrimidin-5-ylethynyl]-2-methyl-pyridin-3-yl}-methanesulfonamide]	2820 nM	394 nM	1230 nM	439 nM	588 nM
1 nM	CCc1ncnc(-c2ccc(C)nc2)c1C#Cc1cnc(C)c(NS(C)(=O)=O)c1 [Example 3, N-{5-[4-Ethyl-6-(6-methyl-pyridin-3-yl)-pyrimidin-5-ylethynyl]-2-methyl-pyridin-3-yl}-methanesulfonamide]	368 nM	112 nM	410 nM	23 nM	177 nM
2 nM	CCc1ncnc(-c2ccnc(C)c2)c1C#Cc1cnc(C)c(NS(C)(=O)=O)c1 [Example 4, N-{5-[4-Ethyl-6-(2-methyl-pyridin-4-yl)-pyrimidin-5-ylethynyl]-2-methyl-pyridin-3-yl}-methanesulfonamide]	329 nM	75 nM	383 nM	27 nM	171 nM
0.63 nM	CCc1cc(-c2ncnc(CC)c2C#Cc2cnc(C)c(NS(C)(=O)=O)c2)ccn1 [Example 5, N-{5-[4-Ethyl-6-(2-ethyl-pyridin-4-yl)-pyrimidin-5-ylethynyl]-2-methyl-pyridin-3-yl}-methanesulfonamide]	159 nM	54 nM	220 nM	34 nM	117 nM
1 nM	CCc1ncnc(-c2cc(C)nc(C)c2)c1C#Cc1cnc(C)c(NS(C)(=O)=O)c1 [Example 6, N-{5-[4-(2,6-Dimethyl-pyridin-4-yl)-6-ethyl-pyrimidin-5-ylethynyl]-2-methyl-pyridin-3-yl}-methanesulfonamide]	169 nM	49 nM	243 nM	28 nM	104 nM
2 nM	CCc1ncnc(-c2cccc(C(F)(F)F)c2OC)c1C#Cc1cnc(C)c(NS(C)(=O)=O)c1 [Example 7, N-{5-[4-Ethyl-6-(2-methoxy-3-trifluoromethyl-phenyl)-pyrimidin-5-ylethynyl]-2-methyl-pyridin-3-yl}-methanesulfonamide]	358 nM	381 nM	475 nM	223 nM	543 nM
1 nM	CCc1ncnc(-c2ccc(OC)c(F)c2)c1C#Cc1cnc(C)c(NS(C)(=O)=O)c1 [Example 8, N-{5-[4-Ethyl-6-(3-fluoro-4-methoxy-phenyl)-pyrimidin-5-ylethynyl]-2-methyl-pyridin-3-yl}-methanesulfonamide]	241 nM	184 nM	910 nM	99 nM	279 nM
0.54 nM	CCc1ncnc(-c2ccc(C)nc2)c1C#Cc1cnc(C)c(NS(=O)(=O)c2ccc(F)cc2F)c1 [Example 9, N-{5-[4-Ethyl-6-(6-methyl-pyridin-3-yl)-pyrimidin-5-ylethynyl]-2-methyl-pyridin-3-yl}-2,4-difluoro-benzenesulfonamide]	49 nM	36 nM	248 nM	7 nM	24 nM
0.56 nM	CCc1ncnc(-c2ccnc(C)c2)c1C#Cc1cnc(C)c(NS(=O)(=O)c2ccc(F)cc2F)c1 [Example 10, N-{5-[4-Ethyl-6-(2-methyl-pyridin-4-yl)-pyrimidin-5-ylethynyl]-2-methyl-pyridin-3-yl}-2,4-difluoro-benzenesulfonamide]	92 nM	69 nM	326 nM	29 nM	75 nM
1 nM	CCc1ncnc(-c2ccnc(C)c2)c1C#Cc1cnc(C)c(NS(=O)(=O)c2ccccc2Cl)c1 [Example 11, 2-Chloro-N-{5-[4-ethyl-6-(2-methyl-pyridin-4-yl)-pyrimidin-5-ylethynyl]-2-methyl-pyridin-3-yl}-benzenesulfonamide]	103 nM	190 nM	686 nM	74 nM	–
2 nM	CCc1ncnc(-c2ccnc(C)c2)c1C#Cc1cnc(C)c(NS(=O)(=O)c2ccc(C#N)cc2)c1 [Example 84, 4-Cyano-N-{5-[4-ethyl-6-(2-methyl-pyridin-4-yl)-pyrimidin-5-ylethynyl]-2-methyl-pyridin-3-yl}-benzenesulfonamide]	769 nM	190 nM	778 nM	85 nM	–
0.64 nM	CCc1ncnc(-c2ccc(CN)nc2)c1C#Cc1cnc(C)c(NS(=O)(=O)c2ccc(F)cc2F)c1 [Example 104, N-{5-[4-(6-Aminomethyl-pyridin-3-yl)-6-ethyl-pyrimidin-5-ylethynyl]-2-methyl-pyridin-3-yl}-2,4-difluoro-benzenesulfonamide]	955 nM	119 nM	605 nM	–	127 nM
0.93 nM	CCc1ncnc(-c2ccc(CN)nc2)c1C#Cc1cnc(C)c(NS(=O)(=O)c2ccccc2C(F)(F)F)c1 [Example 105, N-{5-[4-(6-Aminomethyl-pyridin-3-yl)-6-ethyl-pyrimidin-5-ylethynyl]-2-methyl-pyridin-3-yl}-2-trifluoromethyl-benzenesulfonamide]	958 nM	152 nM	406 nM	–	1210 nM
1 nM	CCc1ncnc(-c2ccc(CN)nc2)c1C#Cc1cnc(C)c(NS(=O)(=O)c2ccccc2)c1 [Example 106, N-{5-[4-(6-Aminomethyl-pyridin-3-yl)-6-ethyl-pyrimidin-5-ylethynyl]-2-methyl-pyridin-3-yl}-benzenesulfonamide]	393 nM	118 nM	213 nM	–	131 nM
